These results are taken from PubChem BioAssay (NCI).

SMILES strings stand for the structures.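 1) Cells in 96-well plates. 2) Compound, 48 h, 5 concentrations. 3) Linear interpolation between surrounding doses. 4) Unreached endpoint = highest concentration. GI50 = concentration required for 50% inhibition of growth. TGI is the concentration that stops growth completely.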 A value given as a limit tells only on which side of the number the result lay.

What all share (assay): growth of human tumour cells (NCI), 48 h
For experiment [1], the system named is OVCAR-5 ovarian.
For experiment [2], the system named is CCRF-CEM leukemia.
Experiment [3] deals with SR leukemia.
Experiment [4] has as its system HT29 colon.
In experiment [5] the test system is SF-539 CNS.
The test system of experiment [6] is LOX IMVI melanoma.
For experiment [7], the system named is SF-295 CNS.
For experiment [8], the system named is RPMI-8226 leukemia.

On to `COc1ccc(OC)c(/C=N/N=C(\N)NO)c1`, for which the TGI in experiment [1], in experiment [2], in experiment [3], in experiment [4], in experiment [5] and in experiment [6] was greater than 100 µM throughout. In addition, the TGI in experiment [7] is greater than 100 µM.

In the case of `CC(=O)[CH-]C(=O)c1ccccc1.CC(=O)[CH-]C(=O)c1ccccc1.O=S(=O)([O-])c1cc([O-])c2c([O-])cc(S(=O)(=O)[O-])cc2c1.[Na+].[Zr+4]`, the GI50 is greater than 100 µM in experiment [1]; greater than 100 µM in experiment [4]; greater than 100 µM in experiment [5]; greater than 100 µM in experiment [6]; 69.8 µM in experiment [7]; greater than 100 µM in experiment [8]. Moreover, the TGI in experiment [1], in experiment [4], in experiment [5], in experiment [6], in experiment [7] and in experiment [8] was greater than 100 µM each time.

On to `Cc1nc2c(o1)C(=Nc1ccccc1)c1nc(C)oc1C2=Nc1ccccc1`, for which the TGI in experiment [1] is 92.4 µM; in experiment [2], greater than 100 µM; in experiment [3], greater than 100 µM; in experiment [4], 45.5 µM; in experiment [5], 27.3 µM; in experiment [6], 60.4 µM. The TGI in experiment [7] is 46.7 µM; in experiment [8], greater than 100 µM.

Regarding `COC1OC2COC(C)(C)OC2C(OC(C)=O)C1NC(=O)N(CCCl)N=O` (centres undefined), the TGI in experiment [1] was greater than 100 µM; in experiment [2], greater than 100 µM; in experiment [4], greater than 100 µM; in experiment [5], 93.1 µM; in experiment [6], greater than 100 µM; in experiment [7], greater than 100 µM.

As for `Cc1cc(=O)n(-c2cc3cccccc-3n2)[nH]1`, the TGI is greater than 100 µM in experiment [1]; greater than 100 µM in experiment [2]; 35.6 µM in experiment [4]; 59 µM in experiment [5]; greater than 100 µM in experiment [6]; greater than 100 µM in experiment [7]. Further, the TGI in experiment [8] was 67.2 µM.

Regarding `CC(=O)[C@H]1CCC2[C@@H]3CC=C4C[C@@H]([O-])CC[C@]4(C)C3CC[C@@]21C.CC(=O)[C@H]1CCC2[C@@H]3CC=C4C[C@@H]([O-])CC[C@]4(C)C3CC[C@@]21C.CC(=O)[CH-]C(=O)c1ccccc1.CC(=O)[CH-]C(=O)c1ccccc1.Cl.[Ti+4]` (some centres undefined), the GI50 in experiment [1] is greater than 100 µM; in experiment [2], 10.6 µM; in experiment [4], 14.2 µM; in experiment [5] it was 9.44 µM; in experiment [6], 29 µM; in experiment [7], 17.4 µM. Further, the GI50 in experiment [8] was 15 µM. For the same compound, the TGI in experiment [1] was greater than 100 µM; in experiment [2], greater than 100 µM; in experiment [4] it was greater than 100 µM; in experiment [6] it was greater than 100 µM; in experiment [7] it was 46.4 µM; in experiment [8], greater than 100 µM.

As for `CN(/N=C/c1ccnc2ccccc12)c1c([N+](=O)[O-])cc([N+](=O)[O-])cc1[N+](=O)[O-]`, the TGI in experiment [1], in experiment [2], in experiment [4], in experiment [5], in experiment [6] and in experiment [7] was greater than 100 µM each time. Besides, the TGI in experiment [8] was greater than 100 µM.

Turning to `O=C(/C=C\c1cccc2ccccc12)c1ccc(Cl)cc1Cl`, the TGI was 72.3 µM in experiment [1]; 42.1 µM in experiment [2]; 35.8 µM in experiment [4]; 53.2 µM in experiment [5]; 49.9 µM in experiment [7]; 46.6 µM in experiment [8].

On to `COC(=O)C1=CC2C=CC(C1C(=O)OC)C1C(C(=O)OC)=C(C(=O)OC)C(C(=O)OC)=C(C(=O)OC)C21OC` (centres undefined), for which the TGI in experiment [1], in experiment [3], in experiment [4], in experiment [5], in experiment [6] and in experiment [7] was greater than 100 µM throughout. The same compound showed a TGI in experiment [8] greater than 100 µM.

Turning to `COc1cc(/C=N/N=C(\N)NO)c(Cl)cc1O`, the TGI in experiment [1], in experiment [2], in experiment [4], in experiment [5], in experiment [6] and in experiment [7] was greater than 100 µM each time. In addition, the TGI in experiment [8] is greater than 100 µM.

On to `CN(/N=C\c1ccnc2ccccc12)c1ccc([N+](=O)[O-])cc1`, for which the TGI was greater than 100 µM in experiment [1]; 82.5 µM in experiment [2]; greater than 100 µM in experiment [4]; greater than 100 µM in experiment [5]; greater than 100 µM in experiment [6]; greater than 100 µM in experiment [7]. Further, the TGI in experiment [8] is 65.4 µM.

As to `CC(=O)[CH-]C(=O)c1ccccc1.CC(=O)[CH-]C(=O)c1ccccc1.CC(=O)[CH-]C(=O)c1ccccc1.[Nd+3].[OH3+]`, the GI50 in experiment [1] is 93.1 µM; in experiment [2], 9.7 µM; in experiment [4], 30 µM; in experiment [5], 52.9 µM; in experiment [7], 21.2 µM; in experiment [8] it was 46.6 µM. The TGI in experiment [1] was greater than 100 µM; in experiment [2], greater than 100 µM; in experiment [4], greater than 100 µM; in experiment [5] it was greater than 100 µM; in experiment [7], 86.2 µM; in experiment [8], greater than 100 µM.

Regarding `COC(=O)[C@@H]1Cc2c([nH]c3ccccc23)[C@H](c2ccccc2)N1`, the TGI in experiment [1] was greater than 100 µM; in experiment [2] it was greater than 100 µM; in experiment [3], greater than 100 µM; in experiment [4], greater than 100 µM; in experiment [5], 67.3 µM; in experiment [6], greater than 100 µM. The TGI in experiment [7] stood at 64.4 µM.

As for `Clc1cccc(C2N3CCCCC3[C@@H]3c4[nH]c5ccccc5c4CCN23)c1` (some centres undefined), the TGI in experiment [1] is 55.5 µM; in experiment [2], 56.6 µM; in experiment [4], 34.2 µM; in experiment [5], 57.7 µM; in experiment [7] it was greater than 100 µM; in experiment [8], 81.8 µM.

In the case of `O=C(Nc1ccc(Cl)c(Cl)c1)C(=O)C(C(=O)c1ccccc1-c1ccccc1)C1OC(=O)c2ccccc21` (centres undefined), the TGI is 33.9 µM in experiment [1]; 84.9 µM in experiment [2]; greater than 100 µM in experiment [4]; 27.9 µM in experiment [5]; 28.9 µM in experiment [6]; 73.6 µM in experiment [7]. This compound also returned a TGI in experiment [8] of 63.5 µM.

For the compound `Nc1c(Cl)ncnc1NCCCCCCCCCCCCNc1ncnc(Cl)c1N`, the TGI in experiment [1] is greater than 100 µM; in experiment [3], 5.16 µM; in experiment [4], 49.8 µM; in experiment [5], 30.3 µM; in experiment [6], 6.52 µM; in experiment [7], 5.92 µM. For the same compound, in experiment [8], the TGI turned out to be 5.74 µM.

In the case of `O=C(Nc1ccc(Cl)cc1Cl)OC(Cn1cncn1)c1ccc(Cl)cc1Cl` (centres undefined), the TGI in experiment [2] is greater than 100 µM; in experiment [3], greater than 100 µM; in experiment [4] it was 28.5 µM; in experiment [5] it was 32.5 µM; in experiment [6], 29.9 µM; in experiment [7], 31.4 µM. Besides, the TGI in experiment [8] is greater than 100 µM.

For `COC(=O)[C@@]12CC(C(C)C)[C@H]3CC(C(=O)C=C1OC)[C@H]32` (some centres undefined), the TGI in experiment [1], in experiment [2], in experiment [4], in experiment [5], in experiment [7] and in experiment [8] was greater than 100 µM each time.

With `CNS(=O)(=O)NNS(=O)(=O)c1ccc(OC)cc1`, the TGI in experiment [2], in experiment [3], in experiment [4], in experiment [5], in experiment [6] and in experiment [7] was greater than 100 µM each time. Moreover, the TGI in experiment [8] was greater than 100 µM.

As for `NC1=NN(c2ccccc2)C(=O)C1C(=O)C(=O)Nc1ccc(Cl)c(Cl)c1` (centres undefined), the TGI in experiment [1], in experiment [2], in experiment [3], in experiment [4], in experiment [5] and in experiment [7] was greater than 100 µM in each case. The compound also had a TGI in experiment [8] greater than 100 µM.

In the case of `Clc1cccc(-c2nnc(-c3nn(-c4ccccc4)c4nc5ccccc5nc34)o2)c1`, the TGI in experiment [1], in experiment [2], in experiment [4], in experiment [5], in experiment [6] and in experiment [7] was greater than 100 µM throughout. In addition, the TGI in experiment [8] is greater than 100 µM.

For `CCNC(=O)OCc1c(COC(=O)NCC)c(-c2ccc(Cl)c(Cl)c2)n2c1CCC2`, the TGI in experiment [1] was 59.1 µM; in experiment [2] it was 21.4 µM; in experiment [3], 30.1 µM; in experiment [4] it was greater than 100 µM; in experiment [5], 25.6 µM; in experiment [7], 36.7 µM. In experiment [8], this compound registered a TGI of 27.9 µM.

Turning to `N#CC(C(=O)/C(=N\NC(N)=O)C(C#N)c1ccccc1)c1ccccc1` (centres undefined), the TGI in experiment [1], in experiment [2], in experiment [3], in experiment [4], in experiment [5] and in experiment [7] was greater than 100 µM in each case. Also, in experiment [8], the TGI is greater than 100 µM.
